Earlier results as cited in PMC4691889 (Genes & Development, 2015).

Tested on: NTMT1
Details: inhibition of NTMT1, determined in previous studies; ref Richardson et al. 2015

IC50: 3.3 µM
Compound: Nc1ncnc2c1ncn2[C@@H]1O[C@H](CSCC[C@H](N)C(=O)O)[C@@H](O)[C@H]1O [SAH, S-adenosyl-L-homocysteine]
